Measurements taken from publication PMC6222422, “Synthesis and Biological Evaluation of Novel Indole-Derived Thioureas” (Molecules : A Journal of Synthetic Chemistry and Natural …, 2018).

Key:
[1] = system: BVDV; experiment: microbe, parasite or virus in culture; type: cell-based, bovine viral diarrhoea virus; settings: for EC50: Bovine viral diarrhea virus isolates and strains, MDBK, in Bos taurus, read-out: BVDV EC50
[2] = system: YFV; experiment: microbe, parasite or virus in culture; type: cell-based; settings: Yellow fever virus, BHK, read-out: YFV EC50
[3] = system: CV-B5; experiment: microbe, parasite or virus in culture; type: cell-based, coxsackievirus B5; settings: Enterovirus B, CVB5, Vero 76, read-out: CV-B5 EC50
[4] = system: Sb-1; experiment: microbe, parasite or virus in culture; type: cell-based, poliovirus type-1; settings: Enterovirus C, Vero 76, read-out: Sb-1 EC50
[5] = system: Reo-1; experiment: microbe, parasite or virus in culture; type: cell-based, reovirus type-1; settings: Reovirus sp., BHK, read-out: Reo-1 EC50
[6] = system: RSV; experiment: microbe, parasite or virus in culture; type: cell-based, human respiratory syncytial virus; settings: human respiratory syncytial virus, Vero 76, read-out: RSV EC50
[7] = system: VSV; experiment: microbe, parasite or virus in culture; type: cell-based; settings: Vesicular stomatitis virus, Vero 76, read-out: VSV EC50
[8] = system: VV; experiment: microbe, parasite or virus in culture; type: cell-based; settings: Orthopoxvirus vaccinia, Vero 76, read-out: VV EC50
[9] = system: HSV-1; experiment: microbe, parasite or virus in culture; type: cell-based, human herpes 1; settings: Human alphaherpesvirus 1, Vero 76, read-out: HSV-1 EC50
[10] = in vitro; settings: human
[11] = in vitro; settings: cattle (Bos taurus)
[12] = in vitro; settings: Syrian hamster (Mesocricetus auratus)
[13] = in vitro; settings: African green monkey (Cercopithecus aethiops)
[14] = system: HIV-1; experiment: microbe, parasite or virus in culture; settings: Human immunodeficiency virus 1, MT4, read-out: HIV-1 EC50

SMILES | EC50 [1] [µM] | EC50 [2] [µM] | EC50 [3] [µM] | EC50 [4] [µM] | EC50 [5] [µM] | EC50 [6] [µM] | EC50 [7] [µM] | EC50 [8] [µM] | EC50 [9] [µM] | melting point [°C] | CC50 [10] [µM] | CC50 [11] [µM] | CC50 [12] [µM] | CC50 [13] [µM] | EC50 [14] [µM] | activity against BVDV (in words) [1]
Fc1ccccc1NC(=S)NCCc1c[nH]c2ccccc12 [Compound 11, 1-(2-(1H-Indol-3-yl)ethyl)-3-(2-fluorophenyl)thiourea] | > 69 | > 34 | > 73 | > 73 | > 34 | > 73 | > 73 | > 73 | > 73 | 167 to 168 | 48 | 69 | 34 | 73 | > 48 | 
COc1c(C)c2c(c(O)c1C/C=C(\C)CCC(=O)O)C(=O)OC2 [Mycophenolic acid, mycophenolic acid, reference compound] |  |  |  |  |  |  |  | 1.5 ± 0.2 |  |  |  |  |  | 13 |  | 
O=C(NC(=S)NCCc1c[nH]c2ccccc12)c1ccccc1 [Compound 5, 1-(2-(1H-Indol-3-yl)ethyl)-3-benzoylthiourea] | 20 ± 1.5 | > 34 | > 29 | > 29 | > 34 | > 29 | > 29 | > 29 | > 29 |  | 38 | 67 | 34 | 29 | > 38 | showed activity
C[C@@]1(O)[C@H](O)[C@@H](CO)O[C@H]1n1ccc(N)nc1=O [2′-C-methyl-cytidine, 2′-C-methylcytidine, reference compound] |  |  | 18 ± 0.9 | 7.3 ± 0.4 | 10 ± 1.2 |  |  |  |  |  |  |  | > 100 | > 100 |  | 
Nc1nc2c(ncn2COCCO)c(=O)[nH]1 [Acycloguanosine, acycloguanosine, reference compound] |  |  |  |  |  |  |  |  | 3 ± 0.2 |  |  |  |  | > 100 |  | 
Fc1ccc(NC(=S)NCCc2c[nH]c3ccccc23)cc1 [Compound 17, 1-(2-(1H-Indol-3-yl)ethyl)-3-(4-fluorophenyl)thiourea] | > 53 | > 30 | > 53 | > 53 | > 30 | > 53 | > 53 | > 53 | > 53 |  | 44 | 53 | 30 | 53 | > 44 | 
S=C(NCCc1c[nH]c2ccccc12)Nc1ccccc1 [Compound 1, 1-(2-(1H-Indol-3-yl)ethyl)-3-phenylthiourea] | > 100 | > 48 | > 64 | > 64 | > 48 | > 64 | > 64 | > 64 | > 64 |  | 31 | > 100 | 48 | 64 | > 31 | 
S=C(NCCc1c[nH]c2ccccc12)Nc1ccc(Cl)cc1 [Compound 4, 1-(2-(1H-Indol-3-yl)ethyl)-3-(4-chlorophenyl)thiourea] | > 100 | > 47 | > 55 | > 55 | > 47 | > 55 | > 55 | > 55 | > 55 |  | 45 | > 100 | 47 | 55 | > 45 | 
